Data as given in ChEMBL document CHEMBL4342522 (J Med Chem, 2020).
pIC50, pKi: −log10 of the molar value.

Key:
[1] = Permeability in dog MDCK cells by PAMPA; assay type: ADME, cell-based, Canis lupus familiaris; conditions: read-out: permeability
[2] = Unbound hepatic clearance in human liver microsomes; assay type: ADME, Microsome
NCI-H1299 = assay: Antiproliferative activity against human H1299 cells assessed as reduction in cell viability after 5 days by CellTiter-Glo assay; assay type: functional, cell-based; conditions: NCI-H1299, 120 h
[3] = Unbound hepatic clearance in rat liver microsomes; assay type: ADME, Microsome
[4] = target: T1, Bromodomain-containing protein 4 (Homo sapiens, UniProt O60885); assay: Inhibition of human N-terminal His6 tagged BRD4 BD2 (352 to 457) residues expressed in Escherichia coli BL21(DE3) cells after 1 hr by TR-FRET assay
SKM-1 = assay: Antiproliferative activity against human SKM1 cells assessed as reduction in cell viability after 5 days by CellTiter-Glo assay; assay type: functional, cell-based; conditions: SKM-1, 120 h
[5] = target: T1, Bromodomain-containing protein 4; assay: biochemical; assay type: cell-based
Description: Inhibition of human N-terminal His6 tagged BRD4 BD1 (57 to 168) residues expressed in Escherichia coli BL21(DE3) cells after 1 hr by TR-FRET assay

[6] = Unbound hepatic clearance in mouse liver microsomes; assay type: ADME, Microsome

| SMILES | Papp [1] [×10⁻⁶ cm/s] | CL free [2] [mL/min/kg] | pIC50 (NCI-H1299) | CL free [3] [mL/min/kg] | pKi [4] | pIC50 (SKM-1) | pKi [5] | CL free [6] [mL/min/kg] |
| --- | --- | --- | --- | --- | --- | --- | --- | --- |
| CCNC(=O)c1cc2c(-c3cc(S(C)(=O)=O)ccc3Oc3c(C)cccc3C)cn(C)c(=O)c2[nH]1 | 10.7 | 91.7 | 6.10 | 650 | 8.92 | 7.92 to 7.96 | 6.85 | 550 |
| CCNC(=O)c1cc2c(-c3cc(S(=O)(=O)CC)ccc3Oc3c(C)cccc3C(F)F)cn(C)c(=O)c2[nH]1 | 15.2 | 75 | 6.06 | 200 | 8.68 | 7.62 | 6.80 | 900 |
| CCNC(=O)c1cc2c(-c3ccccc3Cc3c(C)cccc3C)cn(C)c(=O)c2[nH]1 | 3.81 | 5330 | 5.38 | 21700 | 7.60 | 6.82 | 5.68 | 38300 |
| CCNC(=O)c1cc2c(-c3cc(S(C)(=O)=O)ccc3Nc3c(C)cccc3C)cn(C)c(=O)c2[nH]1 | 3.59 | 117 | 5.44 | 433 | 8.37 | 7.17 | 6.60 | 483 |
| CCNC(=O)c1cc2c(-c3cc(S(=O)(=O)CC)ccc3Oc3c(C)cc(Cl)cc3C)cn(C)c(=O)c2[nH]1 | 1.46 | 783 | 6.15 | 1580 | 9.10 | 6.96 | 7.09 | 2000 |
| CCNC(=O)c1cc2c(-c3cc(S(=O)(=O)CC)ccc3-c3ccccc3C)cn(C)c(=O)c2[nH]1 | 10.3 | 112 | 5.59 | 350 | 8.96 | 8.02 | 6.74 | 750 |
| CCNC(=O)c1cc2c(-c3cc(C(C)(C)O)ccc3Oc3c(C)cccc3C)cn(C)c(=O)c2[nH]1 | 6.3 | 617 | 5.92 | 1080 | 9.22 | 7.96 | 6.80 | 2830 |
| CCNC(=O)c1cc2c(-c3cc(S(=O)(=O)CC)ccc3-n3ccc4ccccc43)cn(C)c(=O)c2[nH]1 | 15.9 | 450 | 5.89 | 633 | 8.74 | 7.30 | 6.85 | 2170 |
| Cn1cc(-c2cc(S(C)(=O)=O)ccc2Oc2ccc(F)cc2F)c2cc(C(N)=O)[nH]c2c1=O | 2.4 | 76.7 | 6.22 | < 68.3 | 8.92 | 8.00 | 8.07 | < 120 |
| CCNC(=O)c1cc2c(-c3cc(S(=O)(=O)C4CC4)ccc3Oc3c(C)cccc3C)cn(C)c(=O)c2[nH]1 | 8.33 | 300 | 6.14 | 1780 | 9.22 | 7.70 | 7.42 | 1720 |
| CCNC(=O)c1cc2c(-c3cc(S(=O)(=O)CC)ccc3Oc3c(C)cccc3Br)cn(C)c(=O)c2[nH]1 | 10.5 | 267 | 6.14 | 1350 | 9.00 | 8.01 | 7.35 | 1880 |
| CCNC(=O)c1cc2c(-c3cc(NC(C)=O)ccc3Oc3c(C)cc(F)cc3C)cn(C)c(=O)c2[nH]1 | 1.06 | 183 | 5.80 | 250 | 8.96 | 7.85 | 7.05 | 2330 |
